Results as given in patent publication US10723741B1, “DNA polymerase IIIC inhibitors and use thereof” (Acurx Pharmaceuticals, LLC, priority 2018, dated 2020).

biological target: T1, Staphylococcus aureus DNA pol IIIC enzyme (Staphylococcus aureus, UniProt Q5HGG7); assay: Ki assay for DNA polymerase IIIC (3H-dTTP incorporation, truncated assay); format: biochemical; conditions: Ki = concentration giving 50% inhibition of control activity; range stated for the listed group; read-out: Ki against Staphylococcus aureus DNA pol IIIC enzyme
T1 construct: The recombinant protein had full length of original protein and a His tag, a thrombin site and a T7 tag at N-terminus; His tag (N); thrombin site (N); T7 tag (N); made in house; host or cells: E. coli BL21 (DE3), plasmid pET-28a(+)
T1 sequence (Q5HGG7 1-1438): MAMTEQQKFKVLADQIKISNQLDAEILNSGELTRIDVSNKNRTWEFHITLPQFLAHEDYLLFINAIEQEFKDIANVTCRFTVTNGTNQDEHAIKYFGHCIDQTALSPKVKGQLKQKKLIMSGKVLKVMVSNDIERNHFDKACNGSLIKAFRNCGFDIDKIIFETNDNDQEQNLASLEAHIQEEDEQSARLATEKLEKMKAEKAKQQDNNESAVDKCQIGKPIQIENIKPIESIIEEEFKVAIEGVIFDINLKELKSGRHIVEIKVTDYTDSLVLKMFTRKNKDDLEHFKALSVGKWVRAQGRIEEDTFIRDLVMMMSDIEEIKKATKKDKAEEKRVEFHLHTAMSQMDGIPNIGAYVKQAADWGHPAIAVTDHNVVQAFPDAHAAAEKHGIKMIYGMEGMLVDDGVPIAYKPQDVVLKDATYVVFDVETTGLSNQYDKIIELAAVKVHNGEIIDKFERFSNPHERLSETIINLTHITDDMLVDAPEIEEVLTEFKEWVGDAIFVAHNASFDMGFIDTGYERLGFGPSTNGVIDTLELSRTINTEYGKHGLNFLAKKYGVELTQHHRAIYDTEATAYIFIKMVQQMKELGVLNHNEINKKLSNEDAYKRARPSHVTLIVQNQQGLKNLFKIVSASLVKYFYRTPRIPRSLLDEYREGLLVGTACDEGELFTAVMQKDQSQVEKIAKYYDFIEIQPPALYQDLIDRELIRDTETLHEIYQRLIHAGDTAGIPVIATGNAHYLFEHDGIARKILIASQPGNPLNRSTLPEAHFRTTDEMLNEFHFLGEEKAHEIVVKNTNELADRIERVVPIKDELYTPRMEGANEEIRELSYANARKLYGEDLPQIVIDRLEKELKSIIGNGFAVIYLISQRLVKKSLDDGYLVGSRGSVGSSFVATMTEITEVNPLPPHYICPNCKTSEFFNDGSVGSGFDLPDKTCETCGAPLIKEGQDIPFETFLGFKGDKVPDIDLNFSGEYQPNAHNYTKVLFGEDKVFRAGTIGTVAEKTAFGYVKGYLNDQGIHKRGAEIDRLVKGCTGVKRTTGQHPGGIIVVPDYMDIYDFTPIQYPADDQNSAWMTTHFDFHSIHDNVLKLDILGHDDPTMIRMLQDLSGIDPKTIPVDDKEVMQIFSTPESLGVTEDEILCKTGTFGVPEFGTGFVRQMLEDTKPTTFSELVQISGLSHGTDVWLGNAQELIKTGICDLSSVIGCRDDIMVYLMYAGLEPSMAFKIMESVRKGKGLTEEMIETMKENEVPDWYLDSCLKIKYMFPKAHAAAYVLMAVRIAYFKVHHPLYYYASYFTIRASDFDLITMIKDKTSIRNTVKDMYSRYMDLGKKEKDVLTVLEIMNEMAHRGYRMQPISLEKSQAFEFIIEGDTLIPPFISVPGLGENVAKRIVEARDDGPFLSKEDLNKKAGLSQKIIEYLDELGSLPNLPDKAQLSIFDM
Description: The ability of a compound to inhibit the activity of DNA pol IIIC enzyme can be tested by using a DNA polymerase assay as described, for example, in Barnes and Brown, Nucl. Acids Res. 1979, 6, 1203-1219; Trantolo et al., J. Med. Chem. 1986, 29, 676-681; Mills et al., J. Bacterial. 1977, 132, 641-649; Low et al., J. Biol. Chem. 1976, 251, 1311-1325. This rapid screening method can use natural or recombinant DNA pol III enzymes in a standard DNA polymerase activity assay. By including a test compound in a side-by-side assay with a control, the effect of the test compound on polymerase activity can be assessed. Compounds with an appropriate level (Ki<[…]) of inhibition of the natural or recombinant bacterial DNA polymerase III are preferred.
The DNA polymerase IIIC coding genes were amplified from genomic DNA. The primers were designed so the 5′-terminal and 3′-terminal contain BamHI and XhoI cutting site respectively. The fragment was directly inserted into expression plasmid pET-28a(+) between BamHI and XhoI sites. The recombinant protein had full length of original protein and a His tag, a thrombin site and a T7 tag at N-terminus. The coding sequence of recombinant protein was confirmed by Sanger sequencing using 8 primers to cover the entire coding regions.
The plasmid was transferred into BL21 (DE3) competent E. coli cells. The positive colonies were inoculated into 1 L LB medium and incubated at 37° C. with 200 rpm rotation to reach OD600=0.6. The inducer IPTG 1 mM was then added to induce the expression for 18 hours at 16° C. The cells were harvested and suspended in lysis buffer (25 mM Tris-HCl pH=7.5, 0.15 M NaCl, 20 mM imidazole, 2 mM β-mecaptoethanol and 1×Roche proteinase inhibitor cocktail). The cells were lyzed by sonication, and the debris was spun down at 50000 g for 1 hour.
The protein was isolated first by passing through the lysate through Ni column. The column was washed with 50 column volume (CV) binding buffer (lysis buffer without proteinase inhibitor) and then 10 CVs of washing buffer (binding buffer with total 40 mM imidazole). The protein was eluted out with elusion buffer (binding buffer with total 300 mM imidazole).
The crude extract was then further purified by size exclusion chromatography using a Superdex 200 increase 10/300 column with 25 mM Tris-HCl pH 7.5, 0.15 M NaCl, 5% Glycerol and 1 mM DTT. The final product was stored as 50-100 μL aliquots at −80° C.
The compounds were dissolved in DMSO to 1 mg/ml (or 10 mg/ml) as compound working solution. On the day of the test, […] of DMSO was added into well A, and 100 μL of DMSO was added into wells B through well H in a round bottom 96 well plate (Corning-3788). An aliquot of 20 μL compound working solution was added into well A and mixed by pipetting. From well A, […] solution was transferred to well B and mixed by pipetting to make a 3 x dilution. The procedure was repeated for well B to well C, and so forth until well G. Well H contained DMSO only. This generated a serial of compound working solutions with concentrations at 100, 33.3, 11.1, 3.7, 1.2, 0.4, 0.14, and 0 μg/ml in pure DMSO. This was deemed the ‘mother plate’.
Using a 96-head pipette station (CyBio), 1 μL compound working solutions were transferred from the mother plate into an identical 96-well plate. This was the ‘testing plate’. The testing plate was kept at room temperature.
The enzyme (DNA polymerase IIIC) samples were taken out from −80° C. freezer. It was thawed and kept on ice. The enzyme was diluted to 0.025-0.06 U/μL with dilution buffer (25 mM Tris-HCl, pH=7.5, 0.15M NaCl, 5% Glycerol, 1 mM DTT). One unit of enzyme is defined as the amount of enzyme could incorporate 250 μmole of dTTP in 30 minutes in a standard assay (with the presence of all nucleotide as substrate, in contrast to “truncated assay” from which dGTP was omitted) in the same system. The diluted enzymes were added into a new 96-well plate (Corning-3788) 20 μL per well. This plate was kept on ice. […]

Ki, 53 to 1000 nM:
Cn1ncc2nc(NCc3ccc(Cl)c(Cl)c3)[nH]c(=O)c21 [Compound 2, 5-((3,4-Dichlorobenzyl)amino)-1-methyl-1H-pyrazolo[4,3-d]pyrimidin-7(6H)-one]
Cc1nn(C)c2c(=O)[nH]c(NCc3ccc(Cl)c(Cl)c3)nc12 [Compound 44, 5-((3,4-dichlorobenzyl)amino)-1,3-dimethyl-1H-pyrazolo[4,3-d]pyrimidin-7(6H)-one]
C=CCn1ncc2nc(NCc3ccc(Cl)c(Cl)c3)[nH]c(=O)c21 [Compound 56, 1-allyl-5-((3,4-dichlorobenzyl)amino)-1H-pyrazolo[4,3-d]pyrimidin-7(6H)-one]
O=c1[nH]c(NCc2ccc(Cl)c(Cl)c2)nc2cn[nH]c12 [Compound 77, 5-((3,4-dichlorobenzyl)amino)-1H-pyrazolo[4,3-d]pyrimidin-7(6H)-one]
COCCn1ncc2nc(NCc3ccc(Cl)c(Cl)c3)[nH]c(=O)c21 [Compound 126, 5-((3,4-dichlorobenzyl)amino)-1-(2-methoxyethyl)-1H-pyrazolo[4,3-d]pyrimidin-7(6H)-one]
Cl.O=c1[nH]c(NCc2ccc(Cl)c(Cl)c2)nc2cnn(CC3CNCCO3)c12 (stereo not drawn) [Compound 149, 5-((3,4-dichlorobenzyl)amino)-1-(morpholin-2-ylmethyl)-1H-pyrazolo[4,3-d]pyrimidin-7(6H)-one hydrochloride]
Cl.Cl.O=c1[nH]c(NCc2ccc(Cl)c(Cl)c2)nc2cnn(CCOCCN3CCNCC3)c12 [Compound 167, 5-[(3,4-dichlorophenyl)methylamino]-1-[2-(2-piperazin-1-ylethoxy)ethyl]-6H-pyrazolo[4,3-d]pyrimidin-7-one]
CN(C)CCOCCn1ncc2nc(NCc3ccc(Cl)c(Cl)c3)[nH]c(=O)c21.Cl [Compound 211, 5-((3,4-dichlorobenzyl)amino)-1-(2-(2-(dimethylamino)ethoxy)ethyl)-1H-pyrazolo[4,3-d]pyrimidin-7(6H)-one hydrochloride]
O=c1[nH]c(NCc2ccc(Cl)c(Cl)c2)nc2cnn(-c3ccccc3)c12 [Compound 212, 5-[(3,4-dichlorophenyl)methylamino]-1-phenyl-6H-pyrazolo[4,3-d]pyrimidin-7-one]
O=c1[nH]c(NCc2ccc(Cl)c(Cl)c2)nc2cnn(C3CC3)c12 [Compound 213, 1-Cyclopropyl-5-((3,4-dichlorobenzyl)amino)-1H-pyrazolo[4,3-d]pyrimidin-7(6H)-one]
O=c1[nH]c(NCc2ccc(Cl)c(Cl)c2)nc2cnn(C3CCCC3)c12 [Compound 214, 1-cyclopentyl-5-((3,4-dichlorobenzyl)amino)-1H-pyrazolo[4,3-d]pyrimidin-7(6H)-one]
COC(=O)CCCCn1ncc2nc(NCc3ccc(Cl)c(Cl)c3)[nH]c(=O)c21 [Compound 218, methyl 5-[5-[(3,4-dichlorophenyl)methylamino]-7-oxo-6H-pyrazolo[4,3-d]pyrimidin-1-yl]pentanoate]
Cl.O=c1[nH]c(NCc2ccc(Cl)c(Cl)c2)nc2cnn(C3CCN(C4CCOCC4)CC3)c12 [Compound 242, 5-((3,4-dichlorobenzyl)amino)-1-(1-(tetrahydro-2H-pyran-4-yl)piperidin-4-yl)-1H-pyrazolo[4,3-d]pyrimidin-7(6H)-one hydrochloride]
O=C(O)CCC(=O)N1CCC(n2ncc3nc(NCc4ccc(Cl)c(Cl)c4)[nH]c(=O)c32)CC1 [Compound 273, 4-(4-(5-((3,4-dichlorobenzyl)amino)-7-oxo-6,7-dihydro-1H-pyrazolo[4,3-d]pyrimidin-1-yl)piperidin-1-yl)-4-oxobutanoic Acid]
O=C([C@@H](O)[C@H](O)CO)N1CCC(n2ncc3nc(NCc4ccc(Cl)c(Cl)c4)[nH]c(=O)c32)CC1 [Compound 276, 5-((3,4-dichlorobenzyl)amino)-1-(1-((2S,3R)-2,3,4-trihydroxybutanoyl)piperidin-4-yl)-1H-pyrazolo[4,3-d]pyrimidin-7(6H)-one]
